From patent US20180000085A1, “USE OF PICOLINAMIDE COMPOUNDS WITH FUNGICIDAL ACTIVITY” (DOW AGROSCIENCES LLC, priority 2014, published 2018)

How the values were obtained:
[1] = tested on: Puccinia triticina; experiment: Wheat brown rust (PUCCRT) disease control on wheat seedlings; type: in vivo; design: key to PUCCRT 3DC, HV activity at 100 ppm (% control rating) / PUCCRT disease control, 3DC / PUCCRT 1DP disease control rating, HV activity / PUCCRT 3DC disease control rating, HV activity / PUCCRT 3DC, LV activity at 125.1 g/H (% Control rating) / PUCCRT 1DP, LV activity at 125.1 g/H (% Control rating) / PUCCRT 3DC disease control rating, LV activity at 125.1 g/H / PUCCRT 1DP disease control rating, LV activity at 125.1 g/H / PUCCRT 3DC disease control rating, HV activity at 100 ppm / PUCCRT 1DP disease control rating, HV activity at 100 ppm / HV activity at 100 ppm PUCCRT 3DC (disease control rating) / LV activity at 125.1 g/H PUCCRT 1DP (disease control rating) / LV activity at 125.1 g/H PUCCRT 3DC (disease control rating): A: > 80; B: ≤ 80; C: Not Tested; D: No Activity Observed in the Reported Assay; settings: wheat brown rust; for PUCCRT 1DP disease control rating, HV activity / PUCCRT 3DC disease control rating, HV activity: HV application at 100 ppm
[2] = tested on: Zymoseptoria tritici; experiment: Leaf blotch of wheat (SEPTTR) disease control on wheat seedlings; type: in vivo; design: key to SEPTTR 1DP, HV activity at 100 ppm (% control rating) / SEPTTR 3DC, HV activity at 100 ppm (% control rating) / SEPTTR disease control, 1DP / SEPTTR disease control, 3DC / SEPTTR 1DP disease control rating, HV activity / SEPTTR 3DC disease control rating, HV activity / SEPTTR 3DC, LV activity at 125.1 g/H (% Control rating) / SEPTTR 1DP, LV activity at 125.1 g/H (% Control rating) / SEPTTR 1DP disease control rating, LV activity at 125.1 g/H / SEPTTR 3DC disease control rating, LV activity at 125.1 g/H / SEPTTR 3DC disease control rating, HV activity at 100 ppm / SEPTTR 1DP disease control rating, HV activity at 100 ppm / HV activity at 100 ppm SEPTTR 3DC (disease control rating) / HV activity at 100 ppm SEPTTR 1DP (disease control rating) / LV activity at 125.1 g/H SEPTTR 1DP (disease control rating) / LV activity at 125.1 g/H SEPTTR 3DC (disease control rating): A: > 80; B: ≤ 80; C: Not Tested; D: No Activity Observed in the Reported Assay; settings: wheat leaf blotch; for SEPTTR 1DP disease control rating, HV activity / SEPTTR 3DC disease control rating, HV activity: HV application at 100 ppm
[3] = Low volume application at 125.1 g/H, 1 Day Protectant
[4] = Low volume application at 125.1 g/H, 3 Day Curative

SMILES	PUCCRT 1DP disease control rating, HV activity ([1]; 1 Day Protectant)	PUCCRT 3DC disease control rating, HV activity ([1]; 3 Day Curative)	SEPTTR 1DP disease control rating, HV activity ([2]; 1 Day Protectant)	SEPTTR 3DC disease control rating, HV activity ([2]; 3 Day Curative)	PUCCRT 1DP disease control rating, LV activity [1, 3]	PUCCRT 3DC disease control rating, LV activity [1, 4]	SEPTTR 1DP disease control rating, LV activity [2, 3]	SEPTTR 3DC disease control rating, LV activity [2, 4]
COc1ccnc(C(=O)NC(C)C(=O)OC(C)C(Oc2cc(F)ccc2F)C(C)C)c1O (centres unmarked) [Cmpd 392]	A (> 80)	A (> 80)	A (> 80)	A (> 80)				
COc1ccnc(C(=O)NC(C)C(=O)OC(C)C(Oc2cc(F)cc(Cl)c2)C(C)C)c1O (centres unmarked) [Cmpd 393]	A (> 80)	B (≤ 80)	B (≤ 80)	A (> 80)				
COc1ccnc(C(=O)NC(C)C(=O)OC(C)C(Oc2ccc(C(F)(F)F)cc2)C(C)C)c1O (centres unmarked) [Cmpd 394]	B (≤ 80)	B (≤ 80)	A (> 80)	B (≤ 80)				
CCC(C)C(NC(=O)c1nccc(OC)c1O)C(=O)OC(C)C(Oc1cc(F)ccc1F)C(C)C (centres unmarked) [Cmpd 395]	B (≤ 80)	D	B (≤ 80)	B (≤ 80)				
CCC(C)C(NC(=O)c1nccc(OC)c1O)C(=O)OC(C)C(Oc1ccc(C(F)(F)F)cc1)C(C)C (centres unmarked) [Cmpd 396]	B (≤ 80)	D	B (≤ 80)	B (≤ 80)				
COc1ccnc(C(=O)NC(C)C(=O)OC(C)C(Oc2cccc3ccccc23)C(C)C)c1O (centres unmarked) [Cmpd 397]	A (> 80)	A (> 80)	B (≤ 80)	B (≤ 80)				
COc1ccnc(C(=O)NC(C)C(=O)OC(C)C(Oc2ccc3ccccc3c2)C(C)C)c1O (centres unmarked) [Cmpd 398]	A (> 80)	B (≤ 80)	D	B (≤ 80)				
COc1ccnc(C(=O)NC(C)C(=O)OC(C)C(OC(=O)C(C)C)C(C)C)c1O (centres unmarked) [Cmpd 399]	B (≤ 80)	D	B (≤ 80)	D				
COc1ccnc(C(=O)NC(C(=O)OC(C)C(Oc2cccc3ccccc23)C(C)C)C(C)C)c1O (centres unmarked) [Cmpd 400]	A (> 80)	B (≤ 80)	B (≤ 80)	B (≤ 80)				
COc1ccnc(C(=O)NC(C(=O)OC(C)C(Oc2ccc3ccccc3c2)C(C)C)C(C)C)c1O (centres unmarked) [Cmpd 401]	A (> 80)	B (≤ 80)	B (≤ 80)	B (≤ 80)				
CC[C@H](OC)[C@@H](Oc1ccc(Cl)cc1Cl)[C@H](C)OC(=O)[C@H](C)NC(=O)c1nccc(OC)c1O [Cmpd 402]	B (≤ 80)	B (≤ 80)	B (≤ 80)	B (≤ 80)				
CC[C@H](OC)[C@@H](Oc1ccccc1)[C@H](C)OC(=O)[C@H](C)NC(=O)c1nccc(OC)c1O [Cmpd 403]					A (> 80)	A (> 80)	B (≤ 80)	A (> 80)
CCC(CC)[C@@H](Oc1cccc(F)c1)[C@H](C)OC(=O)[C@@H](NC(=O)c1nccc(OC)c1O)C(C)C [Cmpd 404]	B (≤ 80)	D	A (> 80)	D				
CCC(CC)[C@@H](Oc1ccc(F)cc1)[C@H](C)OC(=O)[C@@H](NC(=O)c1nccc(OC)c1O)C(C)C [Cmpd 405]	A (> 80)	B (≤ 80)	B (≤ 80)	B (≤ 80)				
